Experimental data taken from BindingDB's records for doi:10.7270/Q2PN941W (The Scripps Research Institute Molecular Screening Center, 2007).
Where a name gives a salt, the structure may show the parent alone.

The compounds below were run against Sphingosine 1-phosphate receptor 3 (Homo sapiens, UniProt Q99500) (assay: S1P3 reporter-cell activation, dose response, counter-screen for 5HT1E agonist project (AID 730)).
Chain of Sphingosine 1-phosphate receptor 3 (Q99500 whole entry): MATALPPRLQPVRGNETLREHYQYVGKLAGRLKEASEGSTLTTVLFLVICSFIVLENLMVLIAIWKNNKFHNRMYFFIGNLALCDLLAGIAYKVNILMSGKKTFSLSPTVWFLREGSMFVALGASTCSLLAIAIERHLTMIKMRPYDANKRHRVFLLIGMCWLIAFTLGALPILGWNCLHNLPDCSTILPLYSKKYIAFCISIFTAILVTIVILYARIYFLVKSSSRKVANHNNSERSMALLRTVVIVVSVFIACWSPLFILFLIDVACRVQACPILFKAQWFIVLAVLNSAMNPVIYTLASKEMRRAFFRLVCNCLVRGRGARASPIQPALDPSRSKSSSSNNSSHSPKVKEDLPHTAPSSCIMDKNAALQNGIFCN

| SMILES | EC50 |
| --- | --- |
| COC(=O)CC(=O)Cc1nc(N)nc(Nc2ccc(C)c(C)c2)n1 [4-[4-amino-6-(3,4-dimethylanilino)-1,3,5-triazin-2-yl]-3-oxobutanoic acid methyl ester] | > 40 µM |
| O=C(O)C1CCCCC1C(=O)NCCc1c[nH]c2ccccc12 (stereo not given) [2-[2-(1H-indol-3-yl)ethylcarbamoyl]cyclohexane-1-carboxylic acid] | > 40 µM |
| CN1CCN2c3ccccc3Cc3ccccc3C2C1 (stereo not given) [MIANSERIN HYDROCHLORIDE] | > 40 µM |
| CCOC(=O)C1C(C)=NC(=O)NC1c1ccc(OCC(=O)Nc2ccccc2)c(OC)c1 (stereo not given) [SMR000093032] | > 40 µM |
| C[N+]1=C2CCCCCN2C(O)(c2ccccc2)C1 (stereo not given) [MLS000048587] | > 40 µM |
| c1ccc2sc(C3CCCNC3)nc2c1 (stereo not given) [SMR000067014] | > 40 µM |
| Cc1[nH]c2ccccc2c1C1=CCNCC1 [MLS000045807] | > 40 µM |
| CC[C@@H](CO)NC(=O)[C@@H]1C=C2c3cccc4c3c(cn4C)C[C@H]2N(C)C1 [METHYSERGIDE MALEATE] | > 40 µM |
| CCCCc1ccc2[nH]cc(CCN)c2c1 | > 40 µM |
| CCOC(=O)C1CCN(C(=O)Cc2c(C(=O)O)n(C)c3ccccc23)CC1 [3-{2-[4-(ethoxycarbonyl)piperidin-1-yl]-2-oxoethyl}-1-methyl-1H-indole-2-carboxylic acid] | > 40 µM |
| COc1ccc2[nH]cc(CCN(C)C)c2c1 [3-(2-DIMETHYLAMINOETHYL)-5-METHOXYINDOLE] | > 40 µM |
| COc1ccc(CN2CCN(c3ccccc3F)CC2)c(OC)c1 | > 40 µM |
| Cc1cccc(N2CCN(C(=O)Cc3c(C(=O)O)[nH]c4ccc(Cl)cc34)CC2)c1C [5-chloranyl-3-[2-[4-(2,3-dimethylphenyl)piperazin-1-yl]-2-oxidanylidene-ethyl]-1H-indole-2-carboxylic acid] | > 40 µM |
| CCCCN(C)CCCNC(=O)Cn1c(=O)sc2ccccc21 [N-{3-[butyl(methyl)amino]propyl}-2-(2-oxo-1,3-benzothiazol-3(2H)-yl)acetamide] | > 40 µM |
| CCCCN(CC)Cc1ccc(CNC(=O)Nc2ccc(OC)cc2OC)o1 [1-[[5-[[butyl(ethyl)amino]methyl]furan-2-yl]methyl]-3-(2,4-dimethoxyphenyl)urea] | > 40 µM |
| CCOC(=O)c1c(C)nc(-c2ccccc2)nc1NC(=O)CC [ethyl 4-methyl-2-phenyl-6-(propionylamino)pyrimidine-5-carboxylate] | > 40 µM |
| Cc1c(CN2CCN(c3cccc(C(F)(F)F)c3)CC2)c(=O)n(-c2ccccc2)n1C | > 40 µM |
| CCOC(=O)c1cc2ccc(OC(=O)c3ccco3)cc2oc1=O [ethyl 7-(2-furoyloxy)-2-oxo-2H-chromene-3-carboxylate] | 10.5 µM |
| CN1CCN(C(N=O)c2nonc2N)CC1 (stereo not given) | > 40 µM |
| CN(C)CCCn1c(NC(=O)C2CCCCC2)nc2ccccc21 | > 40 µM |
| Cc1[nH]c2c(Cl)cccc2c1CCN | > 40 µM |
| CN(C)CCOC(=O)c1cn(Cc2ccccc2)c2ccccc12 [2-(dimethylamino)ethyl 1-(phenylmethyl)indole-3-carboxylate;hydrochloride] | > 40 µM |
| CCN(CC)c1nc(N2CCOCC2)c(C#N)c2c1CN(C)CC2 [1-(diethylamino)-7-methyl-3-morpholin-4-yl-6,8-dihydro-5H-2,7-naphthyridine-4-carbonitrile] | > 40 µM |
| Cc1cccc(NC(=O)C2CCCN(C(=O)Nc3ccccc3)C2)c1C (stereo not given) [SMR000006943] | > 40 µM |
| CC(=O)Nc1ccc(S(=O)(=O)N(C)c2ccc(O)cc2)cc1 [MLS000081936] | > 40 µM |

| SMILES | EC50 |
| --- | --- |
| CCN1CC=C(c2c[nH]c3ccccc23)CC1 [MLS000093713] | > 40 µM |
| NCCc1c[nH]c2ccc(F)cc12 [MLS000047815] | > 40 µM |
| Cc1cc(C(C)(C)C)cc(C)c1CC1=NCCN1 [SMR000058526] | > 40 µM |
| Cc1noc(C)c1COc1ccc(C(=O)OC(C)C(=O)Nc2ccc(N3CCOCC3)cc2)cc1 (stereo not given) [[1-[(4-morpholin-4-ylphenyl)amino]-1-oxidanylidene-propan-2-yl] 4-[(3,5-dimethyl-1,2-oxazol-4-yl)methoxy]benzoate] | > 40 µM |
| CCc1ccc(NC(=O)Cn2c(SC)nc3ccccc32)cc1 [N-(4-ethylphenyl)-2-[2-(methylthio)-1-benzimidazolyl]acetamide] | > 40 µM |
| CSc1nc2ccc(NC(=O)C3CCCO3)cc2s1 (stereo not given) [N-[2-(methylthio)-1,3-benzothiazol-6-yl]-2-oxolanecarboxamide] | > 40 µM |
| COc1cc(CN2CCN(c3cccc(C)c3C)CC2)cc(OC)c1O [4-[[4-(2,3-dimethylphenyl)piperazin-1-yl]methyl]-2,6-dimethoxy-phenol] | > 40 µM |
| c1ccc(N2CCN(Cc3cn4cccnc4n3)CC2)cc1 | > 40 µM |
| CN1CC=C(c2c[nH]c3ccccc23)CC1 [MLS000120058] | > 40 µM |
| Cn1c(-c2ccccc2)cnc1SCc1nc(O)c2ccccc2n1 [MLS000077265] | > 40 µM |
| CCc1nn(C(C)C(=O)NCCN2CCN(c3cccc(C)c3C)CC2)c(=O)c2cc3occc3n12 (stereo not given) [SMR000029605] | > 40 µM |
| O=C(NCc1ccccc1)NC1(C(=O)N2CCCC2)CCCCC1 [1-Benzyl-3-[1-(pyrrolidine-1-carbonyl)-cyclohexyl]-urea] | > 40 µM |
| C1=C(c2c[nH]c3ccccc23)CCNC1 | > 40 µM |
| Cc1cc(C(C)(C)C)c(O)c(C)c1CC1=NCCN1 [SMR000059324] | > 40 µM |
| O=C(COC(=O)CCC1CCCC1)Nc1ccc(Cl)cn1 [[2-[(5-chloropyridin-2-yl)amino]-2-oxoethyl] 3-cyclopentylpropanoate] | > 40 µM |
| CC(CCc1ccccc1)NC(=O)CSc1nc(N)cc(N)n1 (stereo not given) [MLS000254508] | > 40 µM |
| CNCCc1c[nH]c2ccccc12 [N-OMEGA-METHYLTRYPTAMINE] | > 40 µM |
| COc1ccc(N(CC(=O)NC2CCCC2)C(=O)Cn2nnc(-c3ccc(C)cc3)n2)cc1OC [N-[2-(cyclopentylamino)-2-oxoethyl]-N-(3,4-dimethoxyphenyl)-2-[5-(4-methylphenyl)tetrazol-2-yl]acetamide] | > 40 µM |
| Cn1cc(C(Cc2ccccc2)N=O)c2ccccc21 (stereo not given) [1-(1-methyl-3-indolyl)-2-phenylethanone oxime] | > 40 µM |
| CCOC(=O)C1CCN(C(c2cccnc2)c2c(NC(=O)c3ccco3)sc(C)c2C)CC1 (stereo not given) [SMR000019649] | > 40 µM |
| CCOC(=O)c1oc2ccccc2c1NC(=O)c1cc(OC)cc(OC)c1 [ethyl 3-[(3,5-dimethoxybenzoyl)amino]-1-benzofuran-2-carboxylate] | > 40 µM |
| Cc1[nH]c2c(C(F)(F)F)cccc2c1CCN [2-[2-methyl-7-(trifluoromethyl)-1H-indol-3-yl]ethanamine;hydrochloride] | > 40 µM |
| O=S(=O)(c1cccc(Cl)c1)N1CCCC1 [MLS000063405] | > 40 µM |
| O=C(Nc1cccc(-c2cn3ccsc3n2)c1)c1ccccc1 [N-[3-(6-imidazo[2,1-b]thiazolyl)phenyl]benzamide] | > 40 µM |
| CC1CN(c2nnnn2-c2ccccc2)CC(C)O1 (stereo not given) [SMR000109556] | > 40 µM |
